Source: ChEMBL document CHEMBL1201862, “PubChem BioAssay data set” (2004)
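Growth conditions: 96-well plates. Treatment: test compound, 48 hours, 5 concentrations. Analysis: linear interpolation between bracketing concentrations; unreached endpoints set to highest concentration. GI50 = concentration required for 50% inhibition of growth.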 Calls of active or inactive are those of the source. Rule as the data show it: active = GI50 up to about 1.1 µM and inactive = higher.

What was measured:
Experiment in all cases: NCI anticancer screen, dose series, 48 h
NCI-H522 = tested on: NCI-H522
OVCAR-5 = tested on: OVCAR-5
SNB-78 = tested on: SNB-78
Malme-3M = tested on: Malme-3M
M19-MEL = tested on: M19-MEL
IGROV-1 = tested on: IGROV-1
COLO 205 = tested on: COLO 205
OVCAR-4 = tested on: OVCAR-4
HOP-62 = tested on: HOP-62
DMS-273 = tested on: DMS-273
ACHN = tested on: ACHN
SW-620 = tested on: SW-620
SNB-19 = tested on: SNB-19
SN12C = tested on: SN12C
CCRF-CEM = tested on: CCRF-CEM
786-0 = tested on: 786-0
HT-29 = tested on: HT-29
SK-OV-3 = tested on: SK-OV-3
UACC-257 = tested on: UACC-257
NCI-H226 = tested on: NCI-H226
A498 = tested on: A498
SNB-75 = tested on: SNB-75
SK-MEL-2 = tested on: SK-MEL-2
LXFL 529 = tested on: LXFL 529
SK-MEL-5 = tested on: SK-MEL-5
NCI-H460 = tested on: NCI-H460
LOX IMVI = tested on: LOX IMVI
KM-20L2 = tested on: KM-20L2
SF-268 = tested on: SF-268
U-251 = tested on: U-251
SR = tested on: SR
HOP-92 = tested on: HOP-92
DLD-1 = tested on: DLD-1
KM12 = tested on: KM12
TK-10 = tested on: TK-10
K562 = tested on: K562
MOLT-4 = tested on: MOLT-4
HOP-18 = tested on: HOP-18
M14 = tested on: M14
UO-31 = tested on: UO-31
HCT-116 = tested on: HCT-116
DMS-114 = tested on: DMS-114
CAKI-1 = tested on: CAKI-1
RPMI-8226 = tested on: RPMI-8226
SF-539 = tested on: SF-539
OVCAR-8 = tested on: OVCAR-8
HCC 2998 = tested on: HCC 2998
HL-60 = tested on: HL-60
A549 = tested on: A549
RXF 393 = tested on: RXF 393
HCT-15 = tested on: HCT-15
SF-295 = tested on: SF-295
RXF 631 = tested on: RXF 631
UACC-62 = tested on: UACC-62
EKVX = tested on: EKVX
OVCAR-3 = tested on: OVCAR-3
NCI-H23 = tested on: NCI-H23

COc1cc2c(c(OC)c1OC)CCNC2C1=C(O)COC1=O (stereo not drawn)
GI50 (NCI-H522): > 100 µM (inactive)
GI50 (OVCAR-5): > 100 µM (inactive)
GI50 (SNB-78): > 100 µM (inactive)
GI50 (Malme-3M): > 100 µM (inactive)
GI50 (M19-MEL): > 100 µM (inactive)
GI50 (IGROV-1): > 100 µM (inactive)
GI50 (COLO 205): > 100 µM (inactive)
GI50 (OVCAR-4): > 100 µM (inactive)
GI50 (HOP-62): > 100 µM (inactive)
GI50 (DMS-273): > 100 µM (inactive)
GI50 (ACHN): > 100 µM (inactive)
GI50 (SW-620): > 100 µM (inactive)
GI50 (SNB-19): > 100 µM (inactive)
GI50 (SN12C): > 100 µM (inactive)
GI50 (CCRF-CEM): > 100 µM (inactive)
GI50 (786-0): > 100 µM (inactive)
GI50 (HT-29): > 100 µM (inactive)
GI50 (SK-OV-3): > 100 µM (inactive)
GI50 (UACC-257): > 100 µM (inactive)
GI50 (NCI-H226): 28.9 µM (inactive)
GI50 (A498): > 100 µM (inactive)
GI50 (SNB-75): > 100 µM (inactive)
GI50 (SK-MEL-2): 61.9 µM (inactive)
GI50 (LXFL 529): > 100 µM (inactive)
GI50 (SK-MEL-5): 95.1 µM (inactive)
GI50 (NCI-H460): 92.9 µM (inactive)
GI50 (LOX IMVI): > 100 µM (inactive)
GI50 (KM-20L2): > 100 µM (inactive)
GI50 (SF-268): > 100 µM (inactive)
GI50 (U-251): > 100 µM (inactive)
GI50 (SR): > 100 µM (inactive)
GI50 (HOP-92): > 100 µM (inactive)
GI50 (DLD-1): > 100 µM (inactive)
GI50 (KM12): > 100 µM (inactive)
GI50 (TK-10): > 100 µM (inactive)
GI50 (K562): > 100 µM (inactive)
GI50 (MOLT-4): > 100 µM (inactive)
GI50 (HOP-18): 95.5 µM (inactive)
GI50 (M14): > 100 µM (inactive)
GI50 (UO-31): > 100 µM (inactive)
GI50 (HCT-116): > 100 µM (inactive)
GI50 (DMS-114): > 100 µM (inactive)
GI50 (CAKI-1): > 100 µM (inactive)
GI50 (RPMI-8226): 88.3 µM (inactive)
GI50 (SF-539): > 100 µM (inactive)
GI50 (OVCAR-8): > 100 µM (inactive)
GI50 (HCC 2998): > 100 µM (inactive)
GI50 (HL-60): > 100 µM (inactive)
GI50 (A549): > 100 µM (inactive)
GI50 (RXF 393): > 100 µM (inactive)
GI50 (HCT-15): > 100 µM
GI50 (SF-295): > 100 µM (inactive)
GI50 (RXF 631): > 100 µM (inactive)
GI50 (UACC-62): 55.6 µM (inactive)

Cc1ccc(S(=O)(=O)N/N=C/C(C)C)cc1
GI50 (OVCAR-5): > 100 µM (inactive)
GI50 (SNB-78): > 100 µM (inactive)
GI50 (Malme-3M): > 100 µM (inactive)
GI50 (M19-MEL): > 100 µM (inactive)
GI50 (IGROV-1): > 100 µM (inactive)
GI50 (COLO 205): > 100 µM (inactive)
GI50 (OVCAR-4): > 100 µM (inactive)
GI50 (EKVX): > 100 µM (inactive)
GI50 (HOP-62): > 100 µM (inactive)
GI50 (DMS-273): > 100 µM (inactive)
GI50 (ACHN): > 100 µM (inactive)
GI50 (SW-620): > 100 µM (inactive)
GI50 (SNB-19): > 100 µM (inactive)
GI50 (SN12C): > 100 µM (inactive)
GI50 (CCRF-CEM): > 100 µM (inactive)
GI50 (786-0): > 100 µM (inactive)
GI50 (HT-29): > 100 µM (inactive)
GI50 (SK-OV-3): > 100 µM (inactive)
GI50 (UACC-257): > 100 µM (inactive)
GI50 (A498): > 100 µM (inactive)
GI50 (SNB-75): 70.6 µM (inactive)
GI50 (SK-MEL-2): > 100 µM (inactive)
GI50 (LXFL 529): > 100 µM (inactive)
GI50 (SK-MEL-5): > 100 µM (inactive)
GI50 (NCI-H460): > 100 µM (inactive)
GI50 (LOX IMVI): > 100 µM (inactive)
GI50 (KM-20L2): > 100 µM (inactive)
GI50 (SF-268): > 100 µM (inactive)
GI50 (U-251): > 100 µM (inactive)
GI50 (HOP-92): 24.9 µM (inactive)
GI50 (DLD-1): > 100 µM (inactive)
GI50 (KM12): > 100 µM (inactive)
GI50 (TK-10): > 100 µM (inactive)
GI50 (OVCAR-3): > 100 µM (inactive)
GI50 (K562): > 100 µM (inactive)
GI50 (MOLT-4): > 100 µM (inactive)
GI50 (HOP-18): > 100 µM (inactive)
GI50 (M14): > 100 µM (inactive)
GI50 (UO-31): > 100 µM (inactive)
GI50 (HCT-116): > 100 µM (inactive)
GI50 (DMS-114): > 100 µM (inactive)
GI50 (CAKI-1): > 100 µM (inactive)
GI50 (RPMI-8226): > 100 µM (inactive)
GI50 (SF-539): > 100 µM (inactive)
GI50 (OVCAR-8): > 100 µM (inactive)
GI50 (NCI-H23): > 100 µM (inactive)
GI50 (HCC 2998): > 100 µM (inactive)
GI50 (HL-60): > 100 µM (inactive)
GI50 (A549): > 100 µM (inactive)
GI50 (RXF 393): > 100 µM (inactive)
GI50 (HCT-15): > 100 µM
GI50 (SF-295): > 100 µM (inactive)
GI50 (RXF 631): > 100 µM (inactive)
GI50 (UACC-62): > 100 µM (inactive)
